# Assay results published in patent publication US20200230126A1, “TARGETED THERAPEUTICS” (TARVEDA THERAPEUTICS, INC., priority 2017, published 2020).
# Experiments:
# Format in all cases: physicochemical
# [1] = Particulate formation in dosing solutions using 0.9% Sodium Chloride, 5% Mannitol and 5% Dextrose adjusted to the low USP pH limits, with rocking (appearance, pH, HPLC recovery); design: key to appearance: Conforms = clear and essentially free of visible particles
# Description: A study was conducted with 0.6 mg/mL and 2.4 mg/mL solutions of SDC-TRAP-0063 Sodium using one of three diluents; 0.9% Sodium Chloride as a positive control, and 5% Dextrose and 5% Mannitol as potential new diluents (Table 2). Each diluent was prepared at the lower pH limit of USP to test a worst-case scenario for solubility (the starting pH was 4.5 for 0.9% Sodium Chloride and 5% Mannitol and 3.2 for 5% Dextrose). The SDC-TRAP-0063 Sodium dosing solutions were prepared in glass vials and then placed on a rocker. […]
# [2] = pH of reconstituted solution and dosing solutions
# Description: The reconstituted solution of SDC-TRAP-0063 Sodium has a pH of about 10.0. This solution is diluted to the target dose in 5% Mannitol, USP. The pH of the infusion solution depends on the concentration of SDC-TRAP-0063 Sodium in the diluted infusion solution. Across the dose ranges employed in the clinical study protocol, the volume of the diluted infusion solution administered will range from 50 to 500 mL, and the pH will range from 8.1 to 9.6. In order to reduce the potential risks of injection site pain and/or damage to the venous endothelium during IV administration, a central venous access line is used for administration of the diluted SDC-TRAP-0063 Sodium.
# A new, more robust and patient-friendly formulation of dosing solution was developed. During this development, it was established that the pH of the dosing solution is driven by the concentration of SDC-TRAP-0063 Sodium and increasing the SDC-TRAP-0063 Sodium concentration allows better control of the solubility and pH of dosing solutions.
# It is believed that a common ion effect is decreasing the solubility of SDC-TRAP-0063 Sodium in 0.9% Sodium Chloride solution.
# [3] = Solubility at various pH in 0.9% Sodium Chloride (HCl addition, about 24 hours equilibration, 0.2 μm filtration); design: key to appearance: Conforms = clear and essentially free of visible particles; conditions: 0.9% Saline
# Description: (§1) Experiments were performed to assess the solubility of SDC-TRAP-0063 Sodium as a function of varying pH.
# [4] = Head-to-head in-use test, 0.9% Sodium Chloride dosing solution in IV bag and IV line with rocking; design: key to appearance: Conforms = clear and essentially free of visible particles; conditions: for appearance: 0.6 mg/mL in Sodium Chloride
# Description: (§2) A head-to-head in-use test of the SDC-TRAP-0063 Sodium 0.9% Sodium Chloride and 5% Mannitol dosing solutions was conducted. This study was intended to directly compare the two based on the specific clinical use direction for each diluent. In this study, the respective IV bags, syringes and IV lines were subjected to a rocking motion during the hold periods to mimic a worst case scenario for agitation of the dosing solution.
# The 0.9% Sodium Chloride dosing solution was tested in an IV bag and IV line and at 0.6 mg/mL of SDC-TRAP-0063 Sodium as used in the clinic during the product complaint, with a designed 4 hour hold period followed by a 2-hour simulated infusion using a peristaltic pump (Table 5).
# [5] = Head-to-head in-use test, 5% Mannitol dosing solution in IV bag, syringe and IV line with rocking
# Description: as §2
# The 5% Mannitol dosing solution was tested in a syringe and IV line as designed for use in the clinic with the addition of continuous rocking to simulate a worst case for agitation of the samples (Table 6). This dosing solution was tested at the limits of intended concentrations of 3 mg/mL and 12 mg/mL of SDC-TRAP-0063 Sodium and with a 2 hour hold period in the IV bag, a 6 hour hold period in the syringe and IV line and a 2-hour simulated infusion to exceed the planned clinical timeframes.
# [6] = Solubility at various pH in 5% Mannitol (HCl addition, about 24 hours equilibration, 0.2 μm filtration); design: key to appearance: Conforms = clear and essentially free of visible particles
# Description: as §1
# Solubility in water = assay: Solubility in water
# Description: As discussed above, the solubility of SDC-TRAP-0063 Sodium is driven primarily by pH. […] Reducing the pH allows the equilibrium to shift more to the lactone form and adversely impacts solubility. Dilute solutions of SDC-TRAP-0063 Sodium result in a lower pH with an increased risk of precipitation. The solubility of SDC-TRAP-0063 Sodium has also been seen to be adversely impacted by the use of 0.9% Sodium Chloride as a diluent. A common ion effect is the likely source of this observation.
# [7] = 0 molar percent HCl added, pH 9.9
# [8] = 8.1 molar percent HCl added, pH 9.6
# [9] = 14.4 molar percent HCl added, pH 9.1
# [10] = 33.1 molar percent HCl added, pH 8.7
# [11] = 35.5 molar percent HCl added, pH 8.7
smiles,measurement,setting,value
"CCc1c2c(nc3ccc(OC(=O)N4CCC(CCn5ccc6cc(-n7c(O)nnc7-c7cc(C(C)C)c(O)cc7O)ccc65)CC4)cc13)-c1cc([C@@](O)(CC)C(=O)[O-])c(CO)c(=O)n1C2.[Na+] [SDC-TRAP-0063 Sodium, Sodium (S)-2-(2-((4-(2-(5-(3-(2,4-dihydroxy-5-isopropylphenyl)-5-hydroxy-4H-1,2,4-triazol-4-yl)-1H-indol-1-yl)ethyl)piperidine-1-carbonyl)oxy)-12-ethyl-8-(hydroxymethyl)-9-oxo-9,11-dihydroindolizino[1,2-b]quinolin-7-yl)-2-hydroxybutanoate]",pH,"[1]; 0.9% Sodium Chloride, pH 4.5, 0.6 mg/mL",8.7
same,appearance,"[1]; 0.9% Sodium Chloride, pH 4.5, 0.6 mg/mL, 0 hours",Conforms^1
same,appearance,"[1]; 0.9% Sodium Chloride, pH 4.5, 0.6 mg/mL, 6 hours",Precipitate
same,appearance,"[1]; 0.9% Sodium Chloride, pH 4.5, 0.6 mg/mL, 24 hours",Precipitate
same,pH,"[1]; 0.9% Sodium Chloride, pH 4.5, 2.4 mg/mL",9.4
same,appearance,"[1]; 0.9% Sodium Chloride, pH 4.5, 2.4 mg/mL, 0 hours",Conforms^1
same,appearance,"[1]; 0.9% Sodium Chloride, pH 4.5, 2.4 mg/mL, 6 hours",Precipitate
same,appearance,"[1]; 0.9% Sodium Chloride, pH 4.5, 2.4 mg/mL, 24 hours",Precipitate
same,pH,"[1]; 5% Dextrose, pH 3.2, 0.6 mg/mL",7.5
same,appearance,"[1]; 5% Dextrose, pH 3.2, 0.6 mg/mL, 0 hours",Conforms^1
same,appearance,"[1]; 5% Dextrose, pH 3.2, 0.6 mg/mL, 6 hours",Precipitate
same,appearance,"[1]; 5% Dextrose, pH 3.2, 0.6 mg/mL, 24 hours",Precipitate
same,pH,"[1]; 5% Dextrose, pH 3.2, 2.4 mg/mL",9.1
same,appearance,"[1]; 5% Dextrose, pH 3.2, 2.4 mg/mL, 0 hours",Conforms^1
same,appearance,"[1]; 5% Dextrose, pH 3.2, 2.4 mg/mL, 6 hours",Conforms^1
same,appearance,"[1]; 5% Dextrose, pH 3.2, 2.4 mg/mL, 24 hours",Precipitate
same,pH,"[1]; 5% Mannitol, pH 4.5, 0.6 mg/mL",8.6
same,appearance,"[1]; 5% Mannitol, pH 4.5, 0.6 mg/mL, 0 hours",Conforms^1
same,appearance,"[1]; 5% Mannitol, pH 4.5, 0.6 mg/mL, 6 hours",Precipitate
same,appearance,"[1]; 5% Mannitol, pH 4.5, 0.6 mg/mL, 24 hours",Precipitate
same,pH,"[1]; 5% Mannitol, pH 4.5, 2.4 mg/mL",9.8
same,appearance,"[1]; 5% Mannitol, pH 4.5, 2.4 mg/mL, 0 hours",Conforms^1
same,appearance,"[1]; 5% Mannitol, pH 4.5, 2.4 mg/mL, 6 hours",Conforms^1
same,appearance,"[1]; 5% Mannitol, pH 4.5, 2.4 mg/mL, 24 hours",Conforms^1
same,pH observed for dosing solutions,[2]; 0.9% Sodium chloride,8.6-8.7
same,pH range observed for dosing solutions,[2]; 5% Mannitol,9.4-10.2
same,observed pH for all dosing solutions,"[2]; 5% Mannitol, concentrations from 3-12 mg/mL",≥ 9.4
same,SDC-TRAP-0063 Sodium concentration in the solution,[3]; [7],22.9 mg/mL
same,appearance,[3]; [7],Conforms^1
same,SDC-TRAP-0063 Sodium concentration in the solution,[3]; [8],23.4 mg/mL
same,appearance,[3]; [8],Slightly hazy solution
same,SDC-TRAP-0063 Sodium concentration in the solution,[3]; [9],21.4 mg/mL
same,appearance,[3]; [9],Slightly hazy solution
same,SDC-TRAP-0063 Sodium concentration in the solution,[3]; [10],18.6 mg/mL
same,appearance,[3]; [10],Slightly hazy solution
same,appearance,"[3]; 33.1 molar percent HCl added, pH 8.7, after 1 hour",gelation after 1 hour
same,SDC-TRAP-0063 Sodium concentration in the solution,[3]; [11],13.7 mg/mL
same,appearance,[3]; [11],Slightly hazy solution
same,appearance,"[3]; 35.5 molar percent HCl added, pH 8.7, after 1 hour",gelation after 1 hour
same,termination of the simulated infusion after onset due to occlusion of the in-line filter,"[4]; 0.6 mg/mL in 0.9% Sodium Chloride, 2-hour simulated infusion, peristaltic pump",≤ 1 h
same,precipitation during the hold period,"[4]; 0.6 mg/mL in 0.9% Sodium Chloride, 4 hour hold period, rocking",Precipitation was observed in both the IV bag and IV line
same,appearance,"[4]; Bulk solution, at termination, collected after in line filter",Conforms^1
same,appearance,"[4]; Drip Chamber of the IV Administration set, less than 1 hour (infusion terminated)",Hazy with fine floating
same,appearance,"[4]; IV Administration set, 0 hours, collected after in line filter",Conforms^1
same,appearance,"[4]; IV bag, 0 hours",Conforms^1
same,appearance,"[4]; IV bag, 2 hours",Slightly hazy solution
same,appearance,"[4]; IV bag, 4 hours, collected after in line filter",Conforms^1
same,precipitation,"[5]; 3 mg/mL and 12 mg/mL, all time points, continuous rocking",no precipitation was observed at any time point
same,Recovery of SDC-TRAP-0063 Sodium (Calculated vs. Initial concentration),"[5]; 3 mg/mL, Bulk solution, 8 hours (6 + 2 infusion)",98.0%
same,Recovery of SDC-TRAP-0063 Sodium (Calculated vs. Initial concentration),"[5]; 3 mg/mL, IV bag, 0 hours",100.0%
same,Recovery of SDC-TRAP-0063 Sodium (Calculated vs. Initial concentration),"[5]; 3 mg/mL, IV bag, 2 hours",102.5%
same,Recovery of SDC-TRAP-0063 Sodium (Calculated vs. Initial concentration),"[5]; 3 mg/mL, IV line (infusion end), 8 hours (6 + 2 infusion)",98.7%
same,Recovery of SDC-TRAP-0063 Sodium (Calculated vs. Initial concentration),"[5]; 3 mg/mL, IV line (infusion start), 6 hours, low volume in syringe, complete sample not obtained",93.5%^1
same,Recovery of SDC-TRAP-0063 Sodium (Calculated vs. Initial concentration),"[5]; 3 mg/mL, IV line, 0 hours",97.2%
same,Recovery of SDC-TRAP-0063 Sodium (Calculated vs. Initial concentration),"[5]; 12 mg/mL, Bulk solution, 8 hours (6 + 2 infusion)",105.4%
same,Recovery of SDC-TRAP-0063 Sodium (Calculated vs. Initial concentration),"[5]; 12 mg/mL, IV bag, 0 hours",100.0%
same,Recovery of SDC-TRAP-0063 Sodium (Calculated vs. Initial concentration),"[5]; 12 mg/mL, IV bag, 2 hours",103.9%
same,Recovery of SDC-TRAP-0063 Sodium (Calculated vs. Initial concentration),"[5]; 12 mg/mL, IV line (infusion end), 8 hours (6 + 2 infusion)",104.3%
same,Recovery of SDC-TRAP-0063 Sodium (Calculated vs. Initial concentration),"[5]; 12 mg/mL, IV line (infusion start), 6 hours",101.6%
same,Recovery of SDC-TRAP-0063 Sodium (Calculated vs. Initial concentration),"[5]; 12 mg/mL, IV line, 0 hours",103.6%
same,appearance,"[6]; 0 molar percent HCl added, pH 10.1",Conforms^2
same,SDC-TRAP-0063 Sodium concentration in the solution,"[6]; 0 molar percent HCl added, pH 10.1, after 24 hours of rocking, starting 23.6 mg/mL",>23.6 (after mg/mL
same,SDC-TRAP-0063 Sodium concentration in the solution,"[6]; 10.5 molar percent HCl added, pH 9.9",>23.5 mg/mL
same,SDC-TRAP-0063 Sodium concentration in the solution,"[6]; 18.2 molar percent HCl added, pH 9.9",>23.3 mg/mL
same,SDC-TRAP-0063 Sodium concentration in the solution,"[6]; 33.1 molar percent HCl added, pH 9.1",20.2 mg/mL
same,SDC-TRAP-0063 Sodium concentration in the solution,"[6]; 35.5 molar percent HCl added, pH 9.4",20.9 mg/mL
same,precipitation,[6]; maximum concentration of 12 mg/mL,does not result in precipitation
same,solubility,Solubility in water,> 52.5 mg/mL
